Laboratory results: US20260314594A1, “METHODS OF ENHANCING POLLEN VIABILITY OF PLANTS” (ACADEMIA SINICA, priority 2022, published 2026)

Tests used:
Easter lily pollen = Easter lily pollen germination in vitro (germination rate in germination medium); format: cell-based, Easter lily (Lilium longiflorum Thunb. cv White Heaven)
Experimental: Pollen and stigma exudate (SE) were collected from more than ten thousand Easter lily (Lilium longiflorum Thunb. cv White Heaven) flowers. After dehydration at room temperature for 4 to 5 days, pollen grains were collected from dehydrated anthers. Pistils were harvested and used for SE collection. In general, 20~50 μL SE collected from a single ‘White Heaven’ pistil will be stored at −20° C. for further usage.
(§1) Lily pollen was cultured in a germination medium (GM) containing 12.7 mM CaCl2), 1.62 mM H3BO3, 9.9 mM KNO3, and 10% sucrose, pH5.2 at 28° C. for 2 hours with shaking at 50 rpm in the dark. Tobacco (Nicotiana tabacum) pollen was germinated in GM containing 1 mM CaCl2), 1 mM KCl, 1.6 mM H3BO3, 5% sucrose, 30 μM CuSO4, 15 mM MES, and 12.5% PEG4000, pH 5.9 at 25° C. for 2 hours with shaking at 50 rpm in the dark. Arabidopsis (Arabidopsis thaliana, Col-0) pollen was germinated in GM containing 5 mM CaCl2), 1 mM MgSO4·5 mM KCl·0.01% H3BO3, 10% Sucrose, pH 7.5 at 25° C. for 2 hours with shaking at 50 rpm in the dark. An Olympus BX51 microscope recorded germinating pollen. Pollen germination rate was calculated using the formula below: Pollen germination rate (%)=number of germinated pollen grains per field of view by the total number of pollen grains per field of view X100.
(§2) ImageJ measured pollen tube length and Western blot band intensity quantification. All P-values were calculated by One-way ANOVA (Analysis Of Variance) and Tukey's post hoc tests with SPSS
To validate the effect of HOPA on the stimulation of pollen germination, lily pollen grains were cultured in the GM containing 0, 10, 50, 100, and 200 ppm (part per million) of artificial HOPA for different time intervals.
SE has shown its effect on restoring the lost germination capability of pollen stored at low temperatures for a specific period (FIGS. 1A-1E). To validate whether the purified HOPA is the cause to rescue pollen germination capability, pollen grains stored for different time intervals (1 day, 2.5, or 5 months) were subjected to germination assays with or without 100 ppm artificial HOPA present in the GM.
High temperature is an adverse factor for pollen viability (Rang et al., 2011). We further investigated the effect of HOPA on the restoration of pollen viability after heat damage. Freshly collected lily pollen were pre-heat treatments at 28, 37, and 42° C. for 4 hours, followed by subjecting for germination in the GM with or without HOPA at 28° C. for 2 hours.
Low temperature is another adverse factor for pollen germination and growth. […] For the control, about 8% of pollen was germinated after 3-hour culture, but HOPA rescued the pollen germination up to about 29% germination rate (FIGS. 6E-6F).

Nicotiana tabacum pollen = test: Tobacco pollen germination in vitro; format: cell-based; conditions: HOPA at 25° C. for 2 hours; FIG. 8A: 50-1600 ppm, 1.5 hours
Experimental: as §1, with “Tobacco (Nicotiana tabacum) pollen was germinated in GM containing 1 mM CaCl2), 1 mM KCl, 1.6 mM H3BO3, 5% sucrose, 30 μM CuSO4, 15 mM MES, and 12.5% PEG4000, pH 5.9 at 25° C. for 2 hours with shaking at 50 rpm in the dark.” left out
as §2
(§3) To investigate the possibility that HOPA can stimulate diverse-species pollen germination, we examined Nicotiana tabacum and Arabidopsis thaliana (Col-0) pollen in GM with or without HOPA at 25° C. for 2 hours. […] Those results reveal the promising universal function of HOPA in stimulating pollen germination.

[1] = tested on: Arabidopsis thaliana (Col-0) pollen; test: Arabidopsis pollen germination in vitro; format: cell-based; conditions: HOPA at 25° C. for 2 hours; FIG. 8B: 200 ppm, 2.5 hours
Experimental: as §1, with “Arabidopsis (Arabidopsis thaliana, Col-0) pollen was germinated in GM containing 5 mM CaCl2), 1 mM MgSO4·5 mM KCl·0.01% H3BO3, 10% Sucrose, pH 7.5 at 25° C. for 2 hours with shaking at 50 rpm in the dark.” left out
as §2, §3

lily pollen tube = test: Lily pollen tube elongation; format: cell-based, Easter lily (Lilium longiflorum Thunb. cv White Heaven); conditions: 100 ppm HOPA
Experimental: as §1, §2
We germinated lily pollen in GM with or without 100 ppm HOPA at 28° C. for different time intervals to obtain their growth rates.

SMILES: CC(C)(CO)C(O)C(=O)NCCCC(=O)O (centres unmarked) [HOPA, hopantenic acid]
- pollen germination rate, HOPA dose response (Easter lily pollen; 0, 10, 50, 100 and 200 ppm HOPA in GM, 28° C., FIG. 5: 2 hours, pollen stored at 4° C. one week): linear-gradient increase in a HOPA dosage-dependent manner
- pollen germination, significance of stimulation (Easter lily pollen; 10-200 ppm HOPA, 28° C., 2 hours, pollen stored at 4° C. one week (FIGS. 5A-5G)): significantly stimulates Easter lily pollen germination
- pollen germination rate at low temperature (Easter lily pollen; 18° C., 3-hour culture, 100 ppm HOPA, control about 8% (FIGS. 6E-6F)): about 29%
- pollen germination at low temperature, in words (Easter lily pollen; 18° C., 3-hour growth, 100 ppm HOPA (FIGS. 6E-6F)): partially rescued pollen germination rate at low-temperature conditions
- pollen germination rates of HOPA compared with 1/10 SE (Easter lily pollen; 100-200 ppm HOPA (FIG. 5G) vs 1/10 SE (about 785 ppm HOPA)): comparable effects in pollen germination rates
- pollen germination of long-time stored pollen (Easter lily pollen; pollen stored at 4° C. for 1 day, 2.5 or 5 months, 100 ppm HOPA, 28° C., 2 hours (FIGS. 6A-6B)): validly stimulates pollen germination in all stored pollen grains, especially for 5-month stored pollen germination
- pollen germination after heat damage (Easter lily pollen; pre-heat treatment at 28, 37 and 42° C. for 4 hours, then 100 ppm HOPA at 28° C. for 2 hours (FIGS. 6C-6D)): compromised the heat stress causing a decrease in pollen germination
- Nicotiana tabacum pollen germination (Nicotiana tabacum pollen): significantly stimulated
- Arabidopsis thaliana pollen germination [1]: significantly stimulated
- pollen tube elongation rate, in words (lily pollen tube; 28° C. (FIG. 7), compared to GM only): accelerated the pollen tube elongation rate
- pollen tube elongation rate (slope) (lily pollen tube; 28° C., different time intervals, control slope 0.0066 (FIG. 7)): 0.0109
